From ChEMBL document CHEMBL5303573, “Mapping human microbiome drug metabolism by gut bacteria and their genes” (Nature, 2019)

Biological target: T1, Lipolytic enzyme, G-D-S-L family (Bacteroides thetaiotaomicron, UniProt Q8A0E6)
T1 sequence (Q8A0E6 whole entry): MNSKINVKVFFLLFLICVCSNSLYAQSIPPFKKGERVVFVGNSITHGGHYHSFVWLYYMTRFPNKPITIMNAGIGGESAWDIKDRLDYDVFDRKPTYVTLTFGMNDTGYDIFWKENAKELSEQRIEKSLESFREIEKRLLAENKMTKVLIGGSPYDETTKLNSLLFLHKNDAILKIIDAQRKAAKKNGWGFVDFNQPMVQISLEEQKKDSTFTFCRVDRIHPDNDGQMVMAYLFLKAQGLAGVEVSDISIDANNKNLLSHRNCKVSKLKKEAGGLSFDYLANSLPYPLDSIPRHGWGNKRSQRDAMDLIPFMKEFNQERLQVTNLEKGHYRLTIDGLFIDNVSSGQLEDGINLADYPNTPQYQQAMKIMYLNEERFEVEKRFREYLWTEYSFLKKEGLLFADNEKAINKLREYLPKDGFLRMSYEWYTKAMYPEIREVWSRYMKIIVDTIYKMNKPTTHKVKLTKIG
Experiment: (§1) The drug is tested on Bacteroides thetaiotaomicron strain: VPI-5482 for biotransformation. The drug concentrations were measured before and after a 12-h incubation by liquid-chromatography-coupled mass spectrometry (LC–MS)
Format: ADME
Parameters: dose 2 uM
Details: 2 µM

Structure (SMILES) | Bacterial Biotransformation
C#C[C@]1(O)CC[C@H]2[C@@H]3CCC4=Cc5oncc5C[C@]4(C)[C@H]3CC[C@@]21C [DANAZOL] | Compound NOT metabolized
C[C@@H]1CC[C@H]2[C@@H](C)C(=O)O[C@@H]3O[C@@]4(C)CC[C@@H]1[C@]32OO4 [ARTEMISININ] | Compound NOT metabolized
COc1ccnc(C[S+]([O-])c2nc3ccc(OC(F)F)cc3[nH]2)c1OC (centres undefined) [PANTOPRAZOLE] | Compound NOT metabolized
CC(=O)Nc1ccc(OC(C)=O)cc1 [DIACETAMATE] | Compound NOT metabolized

Biological target: T2, Sialic acid-specific 9-O-acetylesterase (Bacteroides thetaiotaomicron, UniProt Q8A0D0)
T2 sequence (Q8A0D0 whole entry): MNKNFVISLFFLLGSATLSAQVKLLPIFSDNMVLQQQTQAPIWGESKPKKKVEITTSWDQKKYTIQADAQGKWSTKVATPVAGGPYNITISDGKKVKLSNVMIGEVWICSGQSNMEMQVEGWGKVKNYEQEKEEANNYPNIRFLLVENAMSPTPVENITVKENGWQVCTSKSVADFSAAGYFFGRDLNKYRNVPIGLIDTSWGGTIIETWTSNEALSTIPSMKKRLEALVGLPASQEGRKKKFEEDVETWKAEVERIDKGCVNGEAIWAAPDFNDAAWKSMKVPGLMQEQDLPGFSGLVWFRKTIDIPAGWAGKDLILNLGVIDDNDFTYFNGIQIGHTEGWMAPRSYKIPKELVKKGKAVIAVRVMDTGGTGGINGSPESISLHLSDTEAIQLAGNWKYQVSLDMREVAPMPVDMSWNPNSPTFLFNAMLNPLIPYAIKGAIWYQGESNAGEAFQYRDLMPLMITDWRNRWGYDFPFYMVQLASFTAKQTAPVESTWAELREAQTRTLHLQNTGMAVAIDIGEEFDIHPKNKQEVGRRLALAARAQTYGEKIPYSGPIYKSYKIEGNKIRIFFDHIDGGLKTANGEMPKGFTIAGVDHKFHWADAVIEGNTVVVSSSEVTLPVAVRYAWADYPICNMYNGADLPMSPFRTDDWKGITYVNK
Experiment: as §1
Format: ADME
Parameters: dose 2 uM
Details: 2 µM

Structure (SMILES) | Bacterial Biotransformation
C[C@@H]1CC[C@H]2[C@@H](C)C(=O)O[C@@H]3O[C@@]4(C)CC[C@@H]1[C@]32OO4 [ARTEMISININ] | Compound NOT metabolized
CC(=O)OCC(=O)NCCCOc1cccc(CN2CCCCC2)c1 [ROXATIDINE ACETATE] | Compound NOT metabolized

Next, values leading:

Bacterial Biotransformation | Structure (SMILES)
Compound NOT metabolized | C#C[C@]1(O)CC[C@H]2[C@@H]3CCC4=Cc5oncc5C[C@]4(C)[C@H]3CC[C@@]21C [DANAZOL]
Compound NOT metabolized | COc1ccnc(C[S+]([O-])c2nc3ccc(OC(F)F)cc3[nH]2)c1OC (centres undefined) [PANTOPRAZOLE]
Compound metabolized | CC(=O)Nc1ccc(OC(C)=O)cc1 [DIACETAMATE]

Biological target: T3, Endoglucanase E (EGE) (Bacteroides thetaiotaomicron, UniProt Q8AAL9)
T3 sequence (Q8AAL9 whole entry): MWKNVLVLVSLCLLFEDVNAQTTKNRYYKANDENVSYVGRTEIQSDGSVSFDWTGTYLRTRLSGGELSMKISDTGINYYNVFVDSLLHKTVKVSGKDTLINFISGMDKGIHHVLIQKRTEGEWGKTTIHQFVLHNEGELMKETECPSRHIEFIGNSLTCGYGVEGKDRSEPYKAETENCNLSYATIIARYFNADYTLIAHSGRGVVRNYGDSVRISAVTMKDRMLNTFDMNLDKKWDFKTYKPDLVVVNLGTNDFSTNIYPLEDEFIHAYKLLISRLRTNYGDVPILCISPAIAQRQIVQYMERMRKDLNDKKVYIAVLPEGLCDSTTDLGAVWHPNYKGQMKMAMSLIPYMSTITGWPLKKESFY
Experiment: as §1
Format: ADME
Parameters: dose 2 uM
Details: 2 µM

Structure (SMILES) | Bacterial Biotransformation
C[C@@H]1CC[C@H]2[C@@H](C)C(=O)O[C@@H]3O[C@@]4(C)CC[C@@H]1[C@]32OO4 [ARTEMISININ] | Compound NOT metabolized
CC(=O)OCC(=O)NCCCOc1cccc(CN2CCCCC2)c1 [ROXATIDINE ACETATE] | Compound NOT metabolized

Now from value to compound:

Bacterial Biotransformation | Structure (SMILES)
Compound NOT metabolized | C#C[C@]1(O)CC[C@H]2[C@@H]3CCC4=Cc5oncc5C[C@]4(C)[C@H]3CC[C@@]21C [DANAZOL]
Compound NOT metabolized | COc1ccnc(C[S+]([O-])c2nc3ccc(OC(F)F)cc3[nH]2)c1OC (centres undefined) [PANTOPRAZOLE]
Compound metabolized | CC(=O)Nc1ccc(OC(C)=O)cc1 [DIACETAMATE]

Biological target: T4, Sialic acid-specific acetylesterase (Bacteroides thetaiotaomicron, UniProt Q8A331)
T4 sequence (Q8A331 whole entry): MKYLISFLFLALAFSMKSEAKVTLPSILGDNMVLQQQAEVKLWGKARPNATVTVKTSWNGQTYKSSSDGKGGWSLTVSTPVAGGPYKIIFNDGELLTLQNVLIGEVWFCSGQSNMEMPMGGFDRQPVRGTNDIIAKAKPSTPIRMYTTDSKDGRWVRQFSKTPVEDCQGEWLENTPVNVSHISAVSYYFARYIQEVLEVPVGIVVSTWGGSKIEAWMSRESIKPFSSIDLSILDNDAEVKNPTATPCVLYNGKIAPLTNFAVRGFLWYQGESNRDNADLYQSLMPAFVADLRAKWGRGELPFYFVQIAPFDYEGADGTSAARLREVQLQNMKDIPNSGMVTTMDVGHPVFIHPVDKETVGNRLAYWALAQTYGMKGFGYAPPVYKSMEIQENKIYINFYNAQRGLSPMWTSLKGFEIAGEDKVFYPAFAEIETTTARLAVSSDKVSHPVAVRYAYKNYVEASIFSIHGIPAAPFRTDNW
Experiment: as §1
Format: ADME
Parameters: dose 2 uM
Details: 2 µM

Structure (SMILES) | Bacterial Biotransformation
C[C@@H]1CC[C@H]2[C@@H](C)C(=O)O[C@@H]3O[C@@]4(C)CC[C@@H]1[C@]32OO4 [ARTEMISININ] | Compound NOT metabolized
CC(=O)OCC(=O)NCCCOc1cccc(CN2CCCCC2)c1 [ROXATIDINE ACETATE] | Compound NOT metabolized

The remaining lines, values ahead:

Bacterial Biotransformation | Structure (SMILES)
Compound NOT metabolized | C#C[C@]1(O)CC[C@H]2[C@@H]3CCC4=Cc5oncc5C[C@]4(C)[C@H]3CC[C@@]21C [DANAZOL]
Compound NOT metabolized | COc1ccnc(C[S+]([O-])c2nc3ccc(OC(F)F)cc3[nH]2)c1OC (centres undefined) [PANTOPRAZOLE]
Compound metabolized | CC(=O)Nc1ccc(OC(C)=O)cc1 [DIACETAMATE]

Biological target: T5, Acyltransferase (Bacteroides thetaiotaomicron, UniProt Q8A575)
T5 sequence (Q8A575 whole entry): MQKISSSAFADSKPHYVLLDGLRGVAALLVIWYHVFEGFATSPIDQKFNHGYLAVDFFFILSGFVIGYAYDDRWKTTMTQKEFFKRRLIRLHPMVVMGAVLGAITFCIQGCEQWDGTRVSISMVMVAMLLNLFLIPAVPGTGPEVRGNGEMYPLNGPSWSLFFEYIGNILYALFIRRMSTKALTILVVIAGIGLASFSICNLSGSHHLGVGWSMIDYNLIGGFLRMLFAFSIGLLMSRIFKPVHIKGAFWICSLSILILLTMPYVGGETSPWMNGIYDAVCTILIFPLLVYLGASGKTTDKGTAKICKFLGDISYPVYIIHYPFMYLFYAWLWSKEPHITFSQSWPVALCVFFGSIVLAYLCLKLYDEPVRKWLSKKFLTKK
Experiment: as §1
Format: ADME
Parameters: dose 2 uM
Details: 2 µM

Structure (SMILES) | Bacterial Biotransformation
C[C@@H]1CC[C@H]2[C@@H](C)C(=O)O[C@@H]3O[C@@]4(C)CC[C@@H]1[C@]32OO4 [ARTEMISININ] | Compound NOT metabolized
CC(=O)OCC(=O)NCCCOc1cccc(CN2CCCCC2)c1 [ROXATIDINE ACETATE] | Compound NOT metabolized

Now from value to compound:

Bacterial Biotransformation | Structure (SMILES)
Compound NOT metabolized | C#C[C@]1(O)CC[C@H]2[C@@H]3CCC4=Cc5oncc5C[C@]4(C)[C@H]3CC[C@@]21C [DANAZOL]
Compound NOT metabolized | COc1ccnc(C[S+]([O-])c2nc3ccc(OC(F)F)cc3[nH]2)c1OC (centres undefined) [PANTOPRAZOLE]
Compound NOT metabolized | CC(=O)Nc1ccc(OC(C)=O)cc1 [DIACETAMATE]

Biological target: T6, Regulatory protein (Bacteroides thetaiotaomicron, UniProt Q8A576)
T6 sequence (Q8A576 whole entry): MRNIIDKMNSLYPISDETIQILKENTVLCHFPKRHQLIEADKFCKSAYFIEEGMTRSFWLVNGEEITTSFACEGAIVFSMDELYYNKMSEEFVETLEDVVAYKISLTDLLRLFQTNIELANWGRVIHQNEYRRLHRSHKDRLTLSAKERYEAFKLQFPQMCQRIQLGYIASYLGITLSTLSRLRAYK
Experiment: as §1
Format: ADME
Parameters: dose 2 uM
Details: 2 µM

Structure (SMILES) | Bacterial Biotransformation
C[C@@H]1CC[C@H]2[C@@H](C)C(=O)O[C@@H]3O[C@@]4(C)CC[C@@H]1[C@]32OO4 [ARTEMISININ] | Compound NOT metabolized
CC(=O)OCC(=O)NCCCOc1cccc(CN2CCCCC2)c1 [ROXATIDINE ACETATE] | Compound metabolized

Results, then the compound that gave them:

Bacterial Biotransformation | Structure (SMILES)
Compound NOT metabolized | C#C[C@]1(O)CC[C@H]2[C@@H]3CCC4=Cc5oncc5C[C@]4(C)[C@H]3CC[C@@]21C [DANAZOL]
Compound NOT metabolized | COc1ccnc(C[S+]([O-])c2nc3ccc(OC(F)F)cc3[nH]2)c1OC (centres undefined) [PANTOPRAZOLE]
Compound metabolized | CC(=O)Nc1ccc(OC(C)=O)cc1 [DIACETAMATE]

Biological target: General stress protein (Bacteroides thetaiotaomicron, UniProt Q8A7U5)
Sequence (Q8A7U5 1-138, change not shown): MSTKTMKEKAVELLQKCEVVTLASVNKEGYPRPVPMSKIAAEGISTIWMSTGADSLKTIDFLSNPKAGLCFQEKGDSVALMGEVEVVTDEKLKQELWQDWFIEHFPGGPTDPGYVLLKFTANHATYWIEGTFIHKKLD
Experiment: as §1
Format: ADME
Parameters: dose 2 uM
Details: 2 µM

Structure (SMILES) | Bacterial Biotransformation
C[C@@H]1CC[C@H]2[C@@H](C)C(=O)O[C@@H]3O[C@@]4(C)CC[C@@H]1[C@]32OO4 [ARTEMISININ] | Compound metabolized
CC(=O)OCC(=O)NCCCOc1cccc(CN2CCCCC2)c1 [ROXATIDINE ACETATE] | Compound NOT metabolized

Other lines, results leading:

Bacterial Biotransformation | Structure (SMILES)
Compound NOT metabolized | C#C[C@]1(O)CC[C@H]2[C@@H]3CCC4=Cc5oncc5C[C@]4(C)[C@H]3CC[C@@]21C [DANAZOL]
Compound NOT metabolized | COc1ccnc(C[S+]([O-])c2nc3ccc(OC(F)F)cc3[nH]2)c1OC (centres undefined) [PANTOPRAZOLE]
Compound NOT metabolized | CC(=O)Nc1ccc(OC(C)=O)cc1 [DIACETAMATE]

Biological target: T7, Nitroreductase (Bacteroides thetaiotaomicron, UniProt Q8A911)
T7 sequence (Q8A911 whole entry): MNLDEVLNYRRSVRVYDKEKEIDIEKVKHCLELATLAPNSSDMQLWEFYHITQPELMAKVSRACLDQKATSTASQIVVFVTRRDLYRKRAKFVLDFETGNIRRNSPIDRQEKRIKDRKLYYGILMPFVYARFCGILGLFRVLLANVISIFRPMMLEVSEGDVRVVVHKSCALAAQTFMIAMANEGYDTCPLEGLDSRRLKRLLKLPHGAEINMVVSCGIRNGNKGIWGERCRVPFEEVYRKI
Experiment: as §1
Format: ADME
Parameters: dose 2 uM
Details: 2 µM

Structure (SMILES) | Bacterial Biotransformation
C[C@@H]1CC[C@H]2[C@@H](C)C(=O)O[C@@H]3O[C@@]4(C)CC[C@@H]1[C@]32OO4 [ARTEMISININ] | Compound NOT metabolized
CC(=O)OCC(=O)NCCCOc1cccc(CN2CCCCC2)c1 [ROXATIDINE ACETATE] | Compound NOT metabolized

The next lines start with the values.

Bacterial Biotransformation | Structure (SMILES)
Compound NOT metabolized | C#C[C@]1(O)CC[C@H]2[C@@H]3CCC4=Cc5oncc5C[C@]4(C)[C@H]3CC[C@@]21C [DANAZOL]
Compound NOT metabolized | COc1ccnc(C[S+]([O-])c2nc3ccc(OC(F)F)cc3[nH]2)c1OC (centres undefined) [PANTOPRAZOLE]
Compound NOT metabolized | CC(=O)Nc1ccc(OC(C)=O)cc1 [DIACETAMATE]
